Laboratory results published in patent US8030335B2, “Use of liver X receptor agonists” (Laboratoires Fournier S.A., priority 2005, dated 2011).

Columns and labels:
[1] = tested on: isolated pancreatic islets; assay: Glucose-stimulated insulin secretion in pancreatic islets isolated from treated ZDF rats; format: in vivo, rat; settings: islets of ZDF rats treated 10 mg/kg oral for 3 weeks
Description: Male ZDF fa/fa and ZDF fa+ rats were obtained from Genetic Models (Indianapolis, Ind.), at the age of 6 weeks and used in the experiments at 12 weeks of age, after 3 weeks of oral treatment with vehicle or GW3965 (10 mg/kg). Compounds were given once daily (at 17 h) via oral gavage. At the time of their use, the ZDF fa/fa rats weighed 310-350 g, whereas the age-matched ZDF fa+ rats weighed 245-285 g. ZDF fa+ and ZDF fa/fa animals had free access to diabetogenic chow (Purina 5008). Animals were housed 5 per cage in a temperature and humidity-controlled room with a 12/12-h light-dark cycle. Blood samples were taken 16 h after compound administration via the tail vein and measured on a Konelab 300 (Labsystem) clinical chemistry analyzer. Rat pancreatic islets were prepared by collagenase digestion and density gradient purification. The enzyme collagenase type XI (Sigma Chemical, St. Louis, Mo.) was used for digestion of the pancreas. After an overnight fast, animals were deeply anesthetized and killed. Then, the pancreatic duct was cannulated, and 20 ml of the digestion solution at 37° C. […] Insulin content was measured in the same islets after an overnight alcohol-acid extraction (Ethanol 75%+HCl 0.15 N). Insulin concentrations in the different media were determined by rat insulin ELISA test (Insulin Rat Elite plus, MERCODIA).

[2] = tested on: PDX1 mRNA; assay: Real-time quantitative RT-PCR of PDX1 in isolated islets of treated ZDF rats; format: in vivo, rat; settings: normalized to 18S rRNA, vehicle ZDF 0.17, fa+ 0.38±0.21
Description: Pancreatic and duodenal homeobox gene 1, Pdx1 (Genbank: NM_022852) and facilitated glucose transporter, member 2, Glut2 (Genbank: NM_012879) gene expression were measured by real time quantitative RT-PCR. Total RNAs from fresh isolated rat pancreatic islets were prepared using Rneasy 96 Kit according to the manufacturer's protocol (Qiagen, France), treated with Dnase I to remove contaminating DNA (Stratagene, France), and quantified using the iScript cDNA Synthesis and iQ SYBR Green Supermix kits (Biorad, france). Real-time quantitative RT-PCR was performed using the iCycler Detection System instrument and software (Bio-Rad). As the predicted size of the amplified cDNAs and the Tm values for the primers were similar, uniform amplification conditions were applied (ie. annealing at 60° C.). Specificity of amplified products was monitored by performing melting curves at the end of each amplification. Expression levels were quantified (total RNA units) by generating a six-point serial standard curve. RNA samples were normalized for comparison by determining 18S rRNA levels. In this example, the mRNA expression of PDX1 and Glut2 was determined. As previously described, PDX1 and Glut2 are markers of the regeneration of beta cells. […] PDX1 and Glut2 mRNA expression was increased in islets isolated from GW3965-compared to vehicle-treated ZDF rats. […]

[3] = tested on: NOD mice; assay: Insulitis development in NOD mice (pancreatic histology); format: in vivo, mouse
Source text: NOD (non-obese diabetes) mice is an experimental model of spontaneous resembling human Type I (insulin-dependent) diabetes, which results from the progressive islet invasion and beta cells destruction by autoreactive T cells. This spontaneous diabetes model offers a unique opportunity of studying the autoreactive T cells involved in the process of beta cell destruction and of settling preventive strategies before clinical onset of the disease. Non fasted mice were killed two days after the last administration of compounds. Pancreatic glands were excised and processed for conventional histological studies after fixation in Bouin's alcoholic solution. Five μm sections were stained with haematoxylin-eosin as described previously by Thivolet C. H. et al., 1991, Diabetologia, 34, 314-319. The evolution of insulitis was analysed in pancreas. […] State 4 was not observed in 8 weeks old mice, this state appeared at around 9-10 weeks. NOD mice of 4 weeks old have been treated for 4 weeks (5 days/7) with vehicle or GW3965 at 50 mg/kg. Pancreatic histological studies have been carried out as described above.

[4] = tested on: NOD mice; assay: Regeneration of beta cells in NOD mice (pancreatic histology); format: in vivo, mouse; settings: NOD mice of 4 weeks old, 50 mg/kg for 4 weeks (5 days/7)
Source text: NOD (non-obese diabetes) mice is an experimental model of spontaneous resembling human Type I (insulin-dependent) diabetes, which results from the progressive islet invasion and beta cells destruction by autoreactive T cells. This spontaneous diabetes model offers a unique opportunity of studying the autoreactive T cells involved in the process of beta cell destruction and of settling preventive strategies before clinical onset of the disease. Non fasted mice were killed two days after the last administration of compounds. Pancreatic glands were excised and processed for conventional histological studies after fixation in Bouin's alcoholic solution. Five μm sections were stained with haematoxylin-eosin as described previously by Thivolet C. H. et al., 1991, Diabetologia, 34, 314-319. NOD mice of 4 weeks old have been treated for 4 weeks (5 days/7) with vehicle or GW3965 at 50 mg/kg. Pancreatic histological studies have been carried out as described above.

O=C(O)Cc1cccc(OCCCN(Cc2cccc(C(F)(F)F)c2Cl)CC(c2ccccc2)c2ccccc2)c1 [GW3965]
increase of insulin secretion vs vehicle-treated ZDF rat islets ([1]; 3.3 mmol/l glucose): 133.8% | increase of insulin secretion vs vehicle-treated ZDF rat islets ([1]; 16.7 mmol/l glucose): 74.5% | PDX1 mRNA expression [2]: 0.35±0.11 | normal islets in the pancreas ([3]; NOD mice of 4 weeks old, 50 mg/kg for 4 weeks (5 days/7), control 32%): 94% | insulitis (lymphocytes infiltration) ([3]; NOD mice, 50 mg/kg for 4 weeks, pancreatic sections): appears protected against the lymphocytes infiltration | regeneration of beta cells (formation of new islets) [4]: formation of new islets
